# From PMC3098219, “Protective Efficacy of Serially Up-Ranked Subdominant CD8^+ T Cell Epitopes against Virus Challenges” (PLoS Pathogens, 2011)
# Experiments:
# H-2K^d [1] = molecular target: T1, H-2K^d (Mus musculus, UniProt P01902); assay: T2 peptide binding assay, H-2K^d; settings: Figure S2A, 100 µM to 0.01 µM peptide
# Method: (§1) TAP2 ([…])-deficient T2 cell lines stably expressing D^d, K^d, and L^d molecules kindly provided by Dr. Ted Hansen (Washington university, U.S.A.) were used to assess the ability of MHCs to bind each peptide. In brief, 1×10^5 cells were incubated with 0/0.1/1.0/10/100 µM peptides in no-serum RPMI (R-0) for 14 h at 37°C, 5% CO2 in a flat-bottomed 96-well plate. 14 h later, cells were transferred to a round-bottomed 96-well plate and washed with PBS before staining the cells with anti-H-2K^d/H-2D^d-PE or anti-H-2L^d-PE (eBioscience) monoclonal antibodies. Cells were then analyzed on a FACS flow cytometer.
# (§2) Supplementary file ppat.1002041.s002.pdf: Figure S2 T2 assays for peptide binding affinity for MHC class I. TAPdeficient T2 cell lines stably transformed with H-2Dd, H-2Kd or H-2Ld complexes were kindly provided by Dr Hansen, Washington University. Peptide-loaded MHC complexes were detected by fluorochrome-conjugated mAb (DB Biosciences) and the cells were analyzed using flow cytometer. […]
# (§3) Supplementary Figure S2. […] Peptide-loaded MHC complexes were detected by fluorochrome-conjugated mAb (DB Biosciences) and the cells were analyzed using flow cytometer. […]
# [2] = test system: splenocytes of DNA-immunized mice; assay: IFN-γ ELISPOT and ICS with modified HIVA immunogens; assay type: cell-based, BALB/c mice; settings: for recognition of altered peptides by splenocytes (IFN-γ): Figure 2A and B, mice immunized with dHmP and dHmPG1, respectively
# From the text: To further investigate this phenomenon, we serially inactivated CD8^+ T cell epitopes in the order of their immunodominance. To maintain the HIVA protein integrity, epitopes P and G1 were mutated rather than deleted by substituting the anchor amino acid residues required for a strong binding to the H-2K^d molecule (Figure 2A). The resulting double and triple mutants of the HIVA immunogen were called dHmP and dHmPG1, respectively. […] Groups of BALB/c mice were immunized 2x using the modified HIVA immunogens vectored by plasmid DNA and the immune responses were measured in IFN-γ ELISPOT, ICS and in vivo killing assays. […] Second, consistently in all three assays, immune responses directed against subdominant epitopes were serially recovered, however, not to the same extent. […] Because the response to the G2 epitope remained undetectable even in the dHmPG1-immunized mice, overlapping 15/11 peptides across the whole HIVA immunogen were used again to search for another yet unidentified epitope of a higher rank. […] (Figure 2D). […] Thus, step-wise deletion of immunodominant CD8^+ T cell epitopes restores responses to the subdominant epitopes in the hierarchy.
# Figure 2 Serial up-ranking of epitopes. A) Groups of 4 BALB/c mice were immunized 2x i.m. with 100 µg of DNA at a 2-wk interval. Two wk later, splenocytes were assessed in an ELISPOT assay for production of IFN-γ upon re-stimulation with peptides indicated above. Shown are schematic diagrams of HIVA and the three modified immunogens with representative examples of the ELISPOT well images. B) Mice were immunized as in A and 4 wk later, splenocytes were assessed in an ICS assay to measure CD8^+ T cells secreting IFN-γ upon re-stimulation with peptide indicated in the top left corner. Group means±SD are shown. C) Identical groups of mice were assessed for cytolytic activity in an in vivo lysis of syngeneic peptide-pulsed cells transferred into naïve or vaccinated animals. Representative examples of dot plots are shown (top) and the peptide-specific lyses are expressed as a group mean±SD (bottom). D) Groups of 3 BALB/c mice were immunized 3x with 100 µg of DNA indicated above the dot plot in 2-wk intervals and the designated NPP peptide-specific responses were assessed by IFN-γ ICS 2 wk later. The FACS plots are representative examples with IFN-γ producing cells as a percentage of CD8^+ splenocytes shown in the top right panels. All experiments were repeated at least once. TEXT PRINTED IN THE PICTURE: (D) HIVA: 0.05 | (D) HIVAdH: 0.09 | (D) dHmP: 0.08 | (D) dHmPG1: 0.57 DOUBTS OF THE COPYIST ABOUT THIS PICTURE: Panel D: the numbers in the top right quadrants of the CD8 / IFN-γ dot plots are printed without a measure or unit, so they are copied as bare numbers.
# The ELISPOT assay was performed using the Mouse IFN-γ ELISpot kit (Mabtech) according to the manufacturer's instructions. Spots were visualised using sequential applications of a biotin-conjugated secondary anti-IFN-γ mAb (R4-6A2, Rat IgG1), an alkaline phosphatase and a chromogenic substrate (Bio-Rad) and counted using the AID ELISpot Reader System (Autoimmun Diagnostika).
# [3] = test system: CD8^+ splenocytes of immunized mice; assay type: cell-based, BALB/c mice; settings: HIVAdH vs HIVA immunization; ex vivo ICS, Figure 1D
# [4] = test system: H-2D^d, H-2K^d or H-2L^d complexes; assay: T2 peptide binding assay, respective MHC class I complexes; settings: Figure 3A; TAP-deficient T2 cells, 100 µM to 0.1 µM peptide, 14 h at 37°C, FACS
# Method: Figure 3 Contributing mechanisms of immunodominance. […] T2 cell lines were incubated with decreasing peptide concentrations ranging from 100 µM to 0.1 µM indicated above the H peptide histogram and the cell surface peptide-loaded MHC complexes were detected by fluorochrome-conjugated mAb (DB Biosciences) and quantified using FACS flow cytometer. B) and C) Groups of 3 BALB/c mice were given 3x immunizations using 100 µg of DNA expressing the index or mutated forms of HIVA at 3 wk intervals and their T cell responses were analyzed 4 wk later. B) Splenocytes were assessed in an ICS assay using peptides indicated above the graphs at concentrations ranging from 10 to 10^−8 µM for 5 h. Cells were gated on IFN-γ-producing CD8^+ T cell populations positive (top) or negative (bottom) for CD107a/b. Note the different y-axis scales on the top and bottom graphs. C) The response kinetics of CD8^+ T cells re-stimulated with 0.1 µM peptides was assessed in an ICS assay in 1-h intervals for a period of 4 h. Data shown are as mean±SD of [CD8^+CD107a/b^+IFN-γ^+ cells at each time point (%)] ÷ [CD8^+CD107a/b^+IFN-γ^+ at 4 h (%)]. One out of two independent experiments is shown.
# as §1
# [5] = test system: syngeneic peptide-pulsed cells; assay: in vivo killing assay (lysis of syngeneic peptide-pulsed cells); set-up: species or system BALB/c mice; settings: HIVAdH vaccinated relative to HIVA vaccination; Figure 1F
# [6] = test system: syngeneic peptide-pulsed cells; assay: In vivo lysis assay, epitope hierarchy with boost vector and time; set-up: species or system BALB/c mice; settings: for epitope hierarchy at 100 d: Figure 5, DNA-DNA (pTH.HIVA) regimen, 100 d after last vaccination
# [7] = test system: CD8^+ splenocytes of DNA-immunized mice; assay: ICS T cell avidity (peptide titration, CD107a/b and IFN-γ); assay type: cell-based, BALB/c mice; settings: for peak IFN-γ^+CD107a/b^+CD8^+ cell frequencies at 10 µM peptide: Figure 3B, individual determinants when dominant: H in group HIVA, P in HIVAdH, G1 in dHmP, NPP in dHmPG1, 3x 100 µg DNA, 5 h
# Method: T2 cell lines were incubated with decreasing peptide concentrations ranging from 100 µM to 0.1 µM indicated above the H peptide histogram and the cell surface peptide-loaded MHC complexes were detected by fluorochrome-conjugated mAb (DB Biosciences) and quantified using FACS flow cytometer. B) and C) Groups of 3 BALB/c mice were given 3x immunizations using 100 µg of DNA expressing the index or mutated forms of HIVA at 3 wk intervals and their T cell responses were analyzed 4 wk later. B) Splenocytes were assessed in an ICS assay using peptides indicated above the graphs at concentrations ranging from 10 to 10^−8 µM for 5 h. Cells were gated on IFN-γ-producing CD8^+ T cell populations positive (top) or negative (bottom) for CD107a/b. Note the different y-axis scales on the top and bottom graphs. C) The response kinetics of CD8^+ T cells re-stimulated with 0.1 µM peptides was assessed in an ICS assay in 1-h intervals for a period of 4 h. Data shown are as mean±SD of [CD8^+CD107a/b^+IFN-γ^+ cells at each time point (%)] ÷ [CD8^+CD107a/b^+IFN-γ^+ at 4 h (%)]. One out of two independent experiments is shown.
# We also measured avidities of T cell responses recovered through the sequential HIVA epitope up-ranking. First, responsiveness of immune splenocytes following 3 plasmid DNA deliveries was measured in an ICS assay upon re-stimulation with peptide concentrations ranging from 10^−8 to 10 µM for 5 h (Figure 3A).
# CD8^+ T cells = assay: Immunodominance hierarchy of T cell responses to HIVA-derived epitopes; assay type: cell-based, BALB/c mice; settings: 10 d after immunization
# H-2D^d = H-2D^d (Mus musculus, UniProt P01900); assay: T2 peptide binding assay, H-2D^d; settings: Figure S2B, 100 µM to 0.01 µM peptide
# Method: as §1, §2, §3
# H-2L^d = H-2L^d (Mus musculus, UniProt P01897); assay: T2 peptide binding assay, H-2L^d; settings: Figure S2B, 100 µM to 0.01 µM peptide
# Method: as §1, §2, §3
# [8] = test system: H-2D^d and H-2L^d molecules; settings: ref [31], [33]; cited from earlier work
# From the text: (§4) Our research interests lie in development of the T cell component of HIV-1 vaccines stimulating protective CD8^+ T cell responses. The first-generation T cell immunogen, designated HIVA (Figure 1A), has served as an extremely useful tool for iterative improving of CD8^+ T cell induction by experimental vaccines in mice, non-human primates and humans [reviewed in [30]]. To increase the power of T cell analysis and study the role of subdominant determinants, H-2^d class I-restricted epitopes contained in the HIVA immunogen were mapped in detail. Thus, the most immunodominant epitope of ...
# H-2K^d [9] = molecular target: T1, H-2K^d; settings: ref [34]; cited from earlier work
# From the text: as §4
# T1 sequence (P01902 whole entry, looked up): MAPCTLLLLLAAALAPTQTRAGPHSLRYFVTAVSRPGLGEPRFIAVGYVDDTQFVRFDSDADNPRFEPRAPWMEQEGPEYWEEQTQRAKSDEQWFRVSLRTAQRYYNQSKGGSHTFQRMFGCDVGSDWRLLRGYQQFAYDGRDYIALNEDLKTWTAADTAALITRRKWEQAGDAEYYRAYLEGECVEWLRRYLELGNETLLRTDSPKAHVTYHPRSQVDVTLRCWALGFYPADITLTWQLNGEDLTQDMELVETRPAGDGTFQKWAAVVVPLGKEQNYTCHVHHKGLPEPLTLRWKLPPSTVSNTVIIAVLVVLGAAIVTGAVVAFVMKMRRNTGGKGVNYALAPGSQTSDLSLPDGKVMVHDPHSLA
# H-2L^d, sequence (P01897 whole entry, looked up): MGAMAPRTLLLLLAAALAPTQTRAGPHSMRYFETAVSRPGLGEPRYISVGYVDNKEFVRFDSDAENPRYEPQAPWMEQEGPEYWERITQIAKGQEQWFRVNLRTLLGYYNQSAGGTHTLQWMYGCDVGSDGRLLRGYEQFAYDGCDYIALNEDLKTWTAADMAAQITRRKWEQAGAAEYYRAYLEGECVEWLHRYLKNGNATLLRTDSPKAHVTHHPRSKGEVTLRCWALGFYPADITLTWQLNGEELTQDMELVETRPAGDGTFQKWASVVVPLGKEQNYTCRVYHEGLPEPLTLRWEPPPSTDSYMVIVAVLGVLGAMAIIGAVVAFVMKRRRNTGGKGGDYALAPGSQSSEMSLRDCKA
# H-2D^d, sequence (P01900 whole entry, looked up): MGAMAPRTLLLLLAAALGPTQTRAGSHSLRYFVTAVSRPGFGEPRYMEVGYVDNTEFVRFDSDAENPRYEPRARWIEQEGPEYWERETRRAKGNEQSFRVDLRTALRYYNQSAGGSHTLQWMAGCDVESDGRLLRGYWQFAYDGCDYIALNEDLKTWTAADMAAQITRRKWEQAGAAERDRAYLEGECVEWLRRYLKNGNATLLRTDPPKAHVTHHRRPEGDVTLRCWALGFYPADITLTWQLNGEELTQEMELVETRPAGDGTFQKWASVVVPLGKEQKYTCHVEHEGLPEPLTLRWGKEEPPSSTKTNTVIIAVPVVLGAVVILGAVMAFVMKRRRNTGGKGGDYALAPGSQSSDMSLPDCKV
sequence,measurement,setting,value
AMEFLKDTA [altered G1 peptide],binding to H-2K^d,H-2K^d [1],unable to bind
same,recognition of altered peptides by splenocytes (IFN-γ),[2],unable to recognize
IFGSSMTKA [altered P peptide],binding to H-2K^d,H-2K^d [1],unable to bind
same,recognition of altered peptides by splenocytes (IFN-γ),[2],unable to recognize
IFQSSMTKI [P],frequencies of IFN-γ-producing CD8^+ cells,[3],"noticeably, though not significantly increased"
same,peptide binding affinities for respective MHC class I,[4],directly correlated with the immunodominance hierarchy
same,in vivo lysis of peptide-pulsed targets,[5],increased in vivo lysis
same,epitope hierarchy at 100 d,[6],replaced by T cells specific for peptide P
same,peak IFN-γ^+CD107a/b^+CD8^+ cell frequencies at 10 µM peptide,[7],3.3 % of total CD8^+ splenocytes
same,hierarchy of T cell responses against HIVA-derived epitopes,CD8^+ T cells,H>P>>G1>NPP>>G2
NPPIPVGDI,restriction / binding to H-2D^d,H-2D^d,restricted by H-2D^d and H-2L^d
same,peak IFN-γ^+CD107a/b^+CD8^+ cell frequencies at 10 µM peptide,[7],0.8 % of total CD8^+ splenocytes
same,hierarchy of T cell responses against HIVA-derived epitopes,CD8^+ T cells,H>P>>G1>NPP>>G2
same,restriction / binding to H-2L^d,H-2L^d,restricted by H-2D^d and H-2L^d
NPPIPVGDIYKRWIILGLNK,T cell response to peptide in epitope search,"[2]; dHmPG1-immunized mice, overlapping 15/11 peptides across HIVA",a response was detected
RGPGRAFVTI [H],MHC class I restriction (H-2D^d and H-2L^d),[8],restricted by H-2D^d and H-2L^d molecules
same,peptide binding affinities for respective MHC class I,[4],directly correlated with the immunodominance hierarchy
same,epitope hierarchy at 100 d,[6],no longer dominated the anti-HIVA response
same,epitope hierarchy at 28 d,"[6]; double or triple DNA prime-boost regimen, 28 d post vaccination",the strongest at 28 d post vaccination
same,IFN-γ response in non-degranulating IFN-γ^+CD107a/b^−CD8^+ cells,"[7]; Figure 3B bottom, following HIVA vaccination, low, but significant",0.65 % of total CD8^+ cells
same,peak IFN-γ^+CD107a/b^+CD8^+ cell frequencies at 10 µM peptide,[7],3.2 % of total CD8^+ splenocytes
same,hierarchy of T cell responses against HIVA-derived epitopes,CD8^+ T cells,H>P>>G1>NPP>>G2
"TTSTLQEQI [G2, Gag residues 239–247]",frequencies of IFN-γ-producing CD8^+ cells,[3],undetectable
same,MHC class I restriction (H-2K^d),H-2K^d [9],H-2K^d-restricted
same,peptide binding affinities for respective MHC class I,[4],directly correlated with the immunodominance hierarchy
same,restoration of G2-specific response,[2]; immunization with dHmPG1 vaccine,failed to restore the G2-specific response
same,hierarchy of T cell responses against HIVA-derived epitopes,CD8^+ T cells,H>P>>G1>NPP>>G2
